Reference: the NIST ThermoML archive (doi:10.1016/j.fluid.2012.08.030)

How the values were obtained:
[1] = Liquid; for mass density: 101 kPa, Vibrating tube method; for vapor or sublimation pressure: Ebulliometric method (Recirculating still)
[2] = xn = mol fraction of the nth substance listed; conditions: 101 kPa, Liquid, Vibrating tube method

CCCCOCCO [2-butoxyethan-1-ol]
[1]
Conditions	mass density [kg/m3]	vapor or sublimation pressure [kPa]
303.15 K	892.28	–
308.15 K	888.19	–
313.15 K	884.17	–
318.15 K	880.02	–
406.8 K	–	28.1
412.1 K	–	34.2
417.35 K	–	41.3
421.57 K	–	47.9
424.9 K	–	53.7
428.43 K	–	60.5
432.22 K	–	68.6
435.52 K	–	76.4
437.42 K	–	81.2
440.2 K	–	88.7
442.49 K	–	95.3

CCCCOCCO [2-butoxyethan-1-ol] + CN1CCCC1=O
mass density [kg/m3], [2]
Conditions	303.15 K	308.15 K	313.15 K	318.15 K
x2 = 0	892.28	888.19	884.17	880.02
x2 = 0.132	914.72	911.2	907.8	904.37
x2 = 0.255	934.22	931.07	928.06	925.08
x2 = 0.369	951.2	948.27	945.46	942.72
x2 = 0.477	966.04	963.19	960.43	957.74
x2 = 0.577	979	976.12	973.27	970.48
x2 = 0.672	990.36	987.35	984.32	981.3
x2 = 0.761	1000.3	997.1	993.8	990.46
x2 = 0.845	1009.04	1005.59	1001.93	998.18
x2 = 0.925	1016.72	1012.95	1008.89	1004.66
x2 = 0.948	1018.83	1014.97	1010.77	1006.39
x2 = 0.963	1020.19	1016.26	1011.97	1007.49
x2 = 0.978	1021.52	1017.52	1013.14	1008.55
x2 = 0.993	1022.82	1018.74	1014.27	1009.57

CCOCCO [2-ethoxyethan-1-ol]
[1]
Conditions	mass density [kg/m3]	vapor or sublimation pressure [kPa]
303.15 K	921.21	–
308.15 K	916.48	–
313.15 K	911.88	–
318.15 K	907.79	–
373.48 K	–	28.1
378.36 K	–	34.2
383.18 K	–	41.3
387.06 K	–	47.9
390.12 K	–	53.7
393.37 K	–	60.5
396.86 K	–	68.6
399.9 K	–	76.4
401.65 K	–	81.2
404.22 K	–	88.7
406.33 K	–	95.3

CCOCCO [2-ethoxyethan-1-ol] + CN1CCCC1=O
mass density [kg/m3], [2]
Conditions	303.15 K	308.15 K	313.15 K	318.15 K
x2 = 0	921.21	916.48	911.88	907.79
x2 = 0.101	936.06	931.85	927.8	924.28
x2 = 0.202	949.87	946.07	942.45	939.35
x2 = 0.302	962.64	959.15	955.84	953.02
x2 = 0.402	974.38	971.1	967.97	965.3
x2 = 0.503	985.1	981.93	978.86	976.19
x2 = 0.602	994.78	991.62	988.5	985.68
x2 = 0.702	1003.45	1000.2	996.91	993.82
x2 = 0.802	1011.12	1007.68	1004.1	1000.58
x2 = 0.851	1014.58	1011.01	1007.23	1003.46
x2 = 0.901	1017.78	1014.06	1010.06	1006
x2 = 0.926	1019.29	1015.48	1011.37	1007.14
x2 = 0.951	1020.74	1016.84	1012.59	1008.2
x2 = 0.982	1022.5	1018.47	1014.05	1009.43

COCCO [2-methoxyethan-1-ol]
[1]
Conditions	mass density [kg/m3]	vapor or sublimation pressure [kPa]
303.15 K	955.74	–
308.15 K	951.14	–
313.15 K	946.25	–
318.15 K	941.59	–
364.15 K	–	28.1
368.84 K	–	34.2
373.48 K	–	41.3
377.22 K	–	47.9
380.17 K	–	53.7
383.3 K	–	60.5
386.66 K	–	68.6
389.59 K	–	76.4
391.28 K	–	81.2
393.75 K	–	88.7
395.78 K	–	95.3

COCCO [2-methoxyethan-1-ol] + CN1CCCC1=O
mass density [kg/m3], [2]
Conditions	303.15 K	308.15 K	313.15 K	318.15 K
x2 = 0	955.74	951.14	946.25	941.59
x2 = 0.084	965.64	961.46	957.05	952.92
x2 = 0.171	975.06	971.25	967.28	963.59
x2 = 0.261	983.98	980.47	976.83	973.49
x2 = 0.354	992.29	989	985.62	982.52
x2 = 0.451	999.91	996.77	993.52	990.55
x2 = 0.552	1006.73	1003.64	1000.44	997.46
x2 = 0.657	1012.64	1009.49	1006.19	1003.04
x2 = 0.767	1017.5	1014.17	1010.64	1007.15
x2 = 0.881	1021.17	1017.52	1013.58	1009.56
x2 = 0.916	1022	1018.23	1014.14	1009.93
x2 = 0.94	1022.5	1018.64	1014.43	1010.07
x2 = 0.97	1023.01	1019.04	1014.68	1010.13
x2 = 0.988	1023.3	1019.24	1014.78	1010.1

CN1CCCC1=O [N-methylpyrrolidone]
[1]
Conditions	mass density [kg/m3]	vapor or sublimation pressure [kPa]
303.15 K	1023.45	–
308.15 K	1019.34	–
313.15 K	1014.82	–
318.15 K	1010.06	–
430.09 K	–	28.1
436.5 K	–	34.2
442.88 K	–	41.3
448.05 K	–	47.9
452.13 K	–	53.7
456.48 K	–	60.5
461.17 K	–	68.6
465.29 K	–	76.4
467.66 K	–	81.2
471.15 K	–	88.7
474.01 K	–	95.3

CN1CCCC1=O [N-methylpyrrolidone] + CCCCOCCO
[2], x1 = 1
Conditions	mass density [kg/m3]
303.15 K	1023.45
308.15 K	1019.34
313.15 K	1014.82
318.15 K	1010.06

CN1CCCC1=O [N-methylpyrrolidone] + CCOCCO
[2], x1 = 1
Conditions	mass density [kg/m3]
303.15 K	1023.45
308.15 K	1019.34
313.15 K	1014.82
318.15 K	1010.06

CN1CCCC1=O [N-methylpyrrolidone] + COCCO
[2], x1 = 1
Conditions	mass density [kg/m3]
303.15 K	1023.45
308.15 K	1019.34
313.15 K	1014.82
318.15 K	1010.06
